The conditions of the data set: Cohort 5: 4.0 g/kg via 15-minutes IV infusion.

Regarding `Br.CN1[C@@H]2C[C@@H](OC(=O)[C@H](CO)c3ccccc3)C[C@H]1[C@@H]1O[C@@H]12.O.O.O` [scopolamine HBr, scopolamine hydrobromide trihydrate], the “Number of TEAEs” value was determined as 25 AEs.

The values are drawn from US20250057853A1 (priority 2023, published 2025).
